Where “and” joins values, the source holds several entries; their conditions need not be identical. Identical values can stand only once. Like-named read-outs stand apart in the source and are kept apart here.
Experiments:
BACE1 = target: T1, BACE1 (Homo sapiens, UniProt P56817); test: BACE1 (β-secretase) FRET inhibitory assay; format: biochemical
T1 construct: purchased PanVera Corporation, Madison, WI, USA P2985
Description: The BACE1 inhibition assay was conducted using the BACE1 (β-secretase) FRET Assay Kit, Red Protocol, part number P2985 (PanVera® Corporation, Madison, WI, USA), following the manufacturer’s recommended protocol with minor modifications. The assay mixture consisted of 10 μL of BACE1 (1.0 U/mL), 10 μL of substrate (750 nM Rh-[…]-Quencher in 50 mM ammonium bicarbonate), the assay buffer (50 mM sodium acetate, pH 4.5), and 10 μL of the test samples. […] The reaction mixture was incubated for 60 min at room temperature in darkness. Before measurement, a stop solution (2.5 M sodium acetate) was added to halt the reaction. BACE1 enzyme activity was assessed by monitoring the proteolysis of two fluorophores (Rh-[…]-Quencher), forming the fluorescent donor (Rh-EVNL) with increased fluorescence wavelengths at 530–545 nm (excitation) and 570–590 nm (emission), respectively. All reactions were recorded in black 96-well microplates and performed in triplicate. The percentage of inhibition (%) was calculated using the following formula: inhibition (%)=[1−(S60−S0)/(C60−C0)]×100 , where C60 represents the fluorescence of the control after incubation, C0 represents the initial fluorescence of the control, S60 represents the fluorescence of the tested sample after incubation, and S0 represents the initial fluorescence of the tested sample. The BACE1-inhibitory activities of each sample were quantified in terms of IC50, which was determined from the log–dose inhibition curve.

MAO-B = target: T2, MAO-B (Homo sapiens, UniProt P27338); test: MAO-B inhibitor screening kit (fluorometric) assay; format: biochemical; conditions: isolated compounds; mean ± SD, n = 3; ND = no detection using test concentration
T2 construct: purchased Abcam plc, Cambridge, UK ab284511
T2 sequence (P27338 1-520): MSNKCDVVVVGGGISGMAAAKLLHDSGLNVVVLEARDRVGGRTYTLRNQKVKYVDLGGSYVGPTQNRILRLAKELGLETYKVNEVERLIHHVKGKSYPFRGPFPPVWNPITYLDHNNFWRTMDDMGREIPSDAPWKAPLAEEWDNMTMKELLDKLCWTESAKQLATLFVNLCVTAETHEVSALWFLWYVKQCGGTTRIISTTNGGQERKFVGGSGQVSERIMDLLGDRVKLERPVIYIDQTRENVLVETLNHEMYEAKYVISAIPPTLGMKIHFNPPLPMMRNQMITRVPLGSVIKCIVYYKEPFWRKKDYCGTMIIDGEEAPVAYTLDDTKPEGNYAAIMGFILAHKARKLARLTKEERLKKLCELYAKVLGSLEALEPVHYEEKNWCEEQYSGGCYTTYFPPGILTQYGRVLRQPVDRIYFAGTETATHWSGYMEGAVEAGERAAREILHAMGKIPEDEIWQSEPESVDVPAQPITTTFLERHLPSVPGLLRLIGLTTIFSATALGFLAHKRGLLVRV
Description: The MAO-B-inhibition assay was conducted using the MAO-B Inhibitor Screening Kit (Fluorometric) ab284511 (Abcam plc, Cambridge, UK), following the manufacturer’s recommended protocol with minor modifications. The enzyme solution (50 µL) and the test sample (10 µL) were adjusted as per the manual instructions. […] After mixing, samples and enzymes were incubated at 25 °C for 10 min. Subsequently, 40 μL of MAO-B substrate (comprising MAO-B assay buffer, MAO substrate, developer, and OxiRed probe) was added, followed by further incubation at 25 °C for 5 min. Fluorescence was measured using enzyme-linked immunosorbent assay within 40 min with dynamic fluorescence (Ex/Em = 535/587 nm). All reactions were recorded in black 96-well microplates and performed in triplicate. The slope for all samples, including the enzyme control (EC), was calculated by dividing the net ΔRFU (RFU2–RFU1) values by the time Δt (T2 − T1). The % relative inhibition was computed as follows: % relative inhibition=(slope of EC−slope of S)/slope of EC×100 . The MAO-B-inhibitory activities of each sample were quantified in terms of IC50, as determined from the log–dose inhibition curve.

[1] = test system: cultured cortical neurons; parameters: method as in PMID 26299900; conditions: cited from earlier work
BChE from equine serum = target: T3, BChE from equine serum (Equus caballus, UniProt P81908); test: biochemical; format: biochemical
T3 construct: BChE from equine serum; purchased Sigma-Aldrich Co., St. Louis, USA; host or cells: equine serum
T3 sequence (P81908 whole entry): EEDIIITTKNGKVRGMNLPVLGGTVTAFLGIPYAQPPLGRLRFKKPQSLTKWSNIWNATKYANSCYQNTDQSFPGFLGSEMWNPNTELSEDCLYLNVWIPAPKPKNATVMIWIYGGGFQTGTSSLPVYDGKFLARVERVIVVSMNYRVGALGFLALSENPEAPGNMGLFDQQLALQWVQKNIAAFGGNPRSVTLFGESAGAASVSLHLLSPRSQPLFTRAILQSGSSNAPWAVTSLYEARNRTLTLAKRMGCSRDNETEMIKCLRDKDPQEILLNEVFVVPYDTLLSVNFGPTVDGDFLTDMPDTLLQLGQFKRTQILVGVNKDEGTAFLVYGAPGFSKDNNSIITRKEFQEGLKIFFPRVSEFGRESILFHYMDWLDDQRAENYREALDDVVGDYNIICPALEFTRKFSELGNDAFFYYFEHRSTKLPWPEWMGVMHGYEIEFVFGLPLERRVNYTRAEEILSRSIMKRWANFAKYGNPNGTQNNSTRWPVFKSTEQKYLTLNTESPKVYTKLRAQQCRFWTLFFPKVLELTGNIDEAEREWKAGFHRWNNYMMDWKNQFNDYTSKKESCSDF
Description: (§1) The AChE- and BChE-inhibitory, MTT, and Th T assays were analyzed using a UV–visible (VIS) spectrophotometer (Biotek, EPOCH2, Winooski, VT, USA), ensuring accurate measurements. For BACE1- and MAO-B-inhibitory assays, a multimode microplate reader (SpectraMax M3, Molecular Devices, San Jose, CA, USA) was employed, providing precise readings. Analytical-grade DMSO from DEAJUNG Chemical, Korea, served as a solvent in the bioassays. Reagents and solvents, including AChE from electric eel, acetylthiocholine iodide (ATCh), BChE from equine serum, S-butyrylthiocholine iodide (BTCh), 5,5′-dithiobis [2-nitrobenzoic acid] […] Additionally, the BACE1-inhibitory assay utilized the BACE1 (β-secretase) FRET assay kit from PanVera® Corporation, Madison, USA, while the MAO-B-inhibitory assay employed the MAO-B Inhibitor Screening Kit (Fluorometric) ab284511 from Abcam plc Co., Cambridge, UK.
(§2) The inhibitory activities against cholinesterases (AChE and BChE) were evaluated using a spectrophotometric method previously developed by Ellman et al.. Specifically, ATCh and BTCh were used as substrates to measure the inhibitory effects on AChE and BChE, respectively. The assay mixture consisted of 140 μL of 0.1 M sodium phosphate buffer at pH 7.8, 20 μL of a 0.38 U/mL solution of either AChE or BChE, and 20 μL of the test sample solution. This mixture was thoroughly mixed and then incubated at room temperature for 15 min. […] Reactions were initiated by adding 10 μL of 0.5 mM DTNB and 10 μL of either 0.6 mM ATCh or BTCh. ChE-inhibitory activity was monitored by measuring the formation of the yellow 5-thio-2-nitrobenzoate anion at 412 nm over 15 min (Epoch, BioTek, Winooski, VT, USA), resulting from the reaction of DTNB and thiocholine released from ATCh or BTCh. All reactions were conducted in 96-well microplates and performed in triplicate. The percentage of inhibition (%) was determined using the following formula: inhibition (%)={(Ac−As)/Ac}×100 , where Ac represents the enzyme activity in the absence of the test sample, and As represents the enzyme activity in the presence of the test sample. The ChE-inhibitory activities of each sample were quantified in terms of IC50, which was calculated from the log–dose inhibition curve.

AChE from electric eel = target: T4, AChE from electric eel (Electrophorus electricus, UniProt O42275); test: biochemical; format: biochemical
T4 construct: purchased Sigma-Aldrich Co., St. Louis, USA
T4 sequence (O42275 24-633): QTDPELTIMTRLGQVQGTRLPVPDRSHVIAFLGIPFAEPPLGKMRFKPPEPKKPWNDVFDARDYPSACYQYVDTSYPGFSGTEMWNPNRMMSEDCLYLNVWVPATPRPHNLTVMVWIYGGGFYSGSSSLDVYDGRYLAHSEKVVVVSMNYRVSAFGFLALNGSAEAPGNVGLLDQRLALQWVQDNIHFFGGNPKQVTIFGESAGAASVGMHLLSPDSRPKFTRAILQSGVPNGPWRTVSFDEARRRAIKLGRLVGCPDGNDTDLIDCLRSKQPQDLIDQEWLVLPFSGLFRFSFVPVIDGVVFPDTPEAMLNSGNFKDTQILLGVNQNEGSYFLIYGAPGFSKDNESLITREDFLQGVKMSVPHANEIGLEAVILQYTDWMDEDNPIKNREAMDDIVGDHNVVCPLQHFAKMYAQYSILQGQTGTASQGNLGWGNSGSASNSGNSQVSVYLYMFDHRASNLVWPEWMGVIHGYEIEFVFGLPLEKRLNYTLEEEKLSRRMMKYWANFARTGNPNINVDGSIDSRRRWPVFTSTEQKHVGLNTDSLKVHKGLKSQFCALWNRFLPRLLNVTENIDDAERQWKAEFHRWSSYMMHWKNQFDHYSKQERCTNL
Description: as §1, §2

β-secretase = test: Western blot of β-secretase levels in APP-CHO cells; format: cell-based, Chinese hamster; conditions: 24 h; for reduction of β-secretase levels compared to DMSO-treated controls: 1.0 μM
Description: (§3) APP-CHO cells were seeded in six-well plates at a density of 6 × 10^5 cells/1000 μL of medium per well and incubated at 37 °C overnight for cell attachment. Then, the medium was replaced with FBS-free RPMI 1640 for 1 h, followed by treatment with test samples at 37 °C. After 24 h, the cells were washed with PBS and lysed in Laemmli sample buffer. The collected cell lysates were boiled at 100 °C for 10 min. For Western blot analysis, 20 μg of proteins were separated by 7.5% SDS-PAGE and transferred to a PVDF membrane using Trans-Blot® Turbo TM (Bio-Rad, Hercules, CA, USA). The membrane was blocked with 5% skim milk in PBS for 1 h and incubated with primary antibodies overnight at 4 °C. The primary antibodies used were sAPPβ antibody, BACE1 antibody, and α-tubulin antibody diluted at 1:1000, 1:1000, and 1:25,000, respectively. After washing with PBS-T (0.1% Tween 20 in PBS) three times for 10 min each, secondary antibodies, diluted to 1:2500, were incubated for 1 h. Protein detection was performed using ECL solution reagent and protein visualization (ChemiDoc^TM XRS+., Bio-Rad, Hercules, CA, USA). The signal intensity of the bands was quantified and normalized to the signal intensity of the α-tubulin band. Results were expressed as a percentage of DMSO-treated control.

sAPPβ = test: Western blot of sAPPβ levels in APP-CHO cells; format: cell-based, Chinese hamster; conditions: 24 h; for reduction of sAPPβ levels compared to DMSO-treated controls: 1.0 μM
Description: as §3

[2] = isolated compounds, mean ± SD, n = 3, read-out: IC50 BACE1
[3] = isolated compounds, mean ± SD, n = 3, ND = no detection using test concentration, read-out: IC50 BChE
[4] = isolated compounds, mean ± SD, n = 3, ND = no detection using test concentration, read-out: IC50 AChE
[5] = isolated compounds, mean ± SD, n = 3, ND = no detection using test concentration

T1 sequence (P56817 46-501): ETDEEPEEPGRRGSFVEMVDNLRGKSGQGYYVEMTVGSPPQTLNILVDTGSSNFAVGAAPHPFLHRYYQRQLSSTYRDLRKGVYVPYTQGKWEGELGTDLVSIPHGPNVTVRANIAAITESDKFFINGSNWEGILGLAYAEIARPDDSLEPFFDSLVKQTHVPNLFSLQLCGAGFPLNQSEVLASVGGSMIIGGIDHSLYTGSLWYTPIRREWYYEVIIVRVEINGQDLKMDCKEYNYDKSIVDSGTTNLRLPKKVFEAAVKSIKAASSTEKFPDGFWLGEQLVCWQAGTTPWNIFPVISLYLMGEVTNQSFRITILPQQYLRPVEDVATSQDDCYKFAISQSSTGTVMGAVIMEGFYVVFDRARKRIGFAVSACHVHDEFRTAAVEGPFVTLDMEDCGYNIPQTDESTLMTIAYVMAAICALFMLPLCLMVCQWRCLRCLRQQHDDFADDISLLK

Row | SMILES | IC50 (MAO-B) | IC50 (BChE from equine serum) | IC50 (AChE from electric eel) | IC50 (BACE1; [2]) | IC50 (BChE from equine serum; [3]) | IC50 (AChE from electric eel; [4]) | also measured
1 | C[C@@H]1O[C@@H](O[C@H]2[C@H](Oc3cc(O)c4c(c3)O[C@H](c3ccc(O)c(O)c3)CC4=O)O[C@H](CO)[C@@H](O)[C@@H]2O)[C@H](O)[C@H](O)[C@H]1O [Compound 8, neoeriocitrin] | 2.64 ± 0.016 µM | 30.04 ± 0.23 µM | 31.65 ± 0.14 µM | – | – | – | IC50 (BACE1): 13.7 ± 0.14 µM; axonal regrowth effect on Aβ25–35-induced atrophy ([1]; 1 and 10 μM): significant axonal regrowth effects
2 | COc1ccc2cc3[n+](cc2c1OC)CCc1cc2c(cc1-3)OCO2 [Berberine, berberine, reference compound] | – | – | 0.119 µM | – | – | – | –
3 | O=C(O)/C=C/c1ccc(O[C@@H]2O[C@H](CO)[C@@H](O)[C@H](O)[C@H]2O)cc1 [Compound 1, coumaric acid 4-O-β-D-glucopyranoside] | > 1000 µM | – | – | > 1000 µM | 53.8 ± 1.15 µM | 33.4 ± 0.42 µM | –
4 | C[C@@H]1O[C@@H](O[C@H]2[C@H](Oc3cc(O)c4c(=O)ccoc4c3)O[C@H](CO)[C@@H](O)[C@@H]2O)[C@H](O)[C@H](O)[C@H]1O [Compound 5, 5,7-dihydroxychromone-7-O-neohesperidoside] | – | – | – | > 1000 µM | 38.8 ± 0.71 µM | > 1000 µM | –
5 | COc1cc(/C=C/C(=O)O)ccc1O[C@@H]1O[C@H](CO)[C@@H](O)[C@H](O)[C@H]1O [Compound 3, lavandoside] | 155 ± 7.18 µM | – | – | 235 ± 6.86 µM | – | – | IC50 BChE (BChE from equine serum; [5]): did not demonstrate cholinesterase-inhibitory activity; IC50 AChE (AChE from electric eel; [5]): did not demonstrate cholinesterase-inhibitory activity
6 | O=C(O)/C=C/c1ccc(O[C@@H]2O[C@H](CO)[C@@H](O)[C@H](O)[C@H]2O)c(O)c1 [Compound 2, caffeic acid 4-O-β-D-glucopyranoside] | 401.3 ± 2.66 µM | – | – | 45 ± 0.48 µM | 488 ± 10.1 µM | 14.77 ± 0.07 µM | reduction of β-secretase expression levels (β-secretase; 0.5 μM): 40%; reduction of sAPPβ expression levels (sAPPβ; 0.5 μM): 50%; axonal regrowth effect on Aβ25–35-induced atrophy ([1]; 10 μM): significant axonal regrowth effects
7 | COc1cc(/C=C/C(=O)O)cc(OC)c1O[C@@H]1O[C@H](CO)[C@@H](O)[C@H](O)[C@H]1O [Compound 4, trans-p-sinapoyl-β-D-glucopyranoside] | 600.9 ± 3.72 µM | – | – | 147.4 ± 0.74 µM | 30.6 ± 0.38 µM | – | –
8 | C[C@@H]1O[C@@H](O[C@H]2[C@H](Oc3cc(O)c4c(c3)O[C@H](c3ccc(O)cc3)CC4=O)O[C@H](CO)[C@@H](O)[C@@H]2O)[C@H](O)[C@H](O)[C@H]1O [Compound 9, naringin] | 51.26 ± 0.14 µM | 252 ± 12.3 µM | 124 ± 35.3 µM | 64.95 ± 0.17 µM | – | – | reduction of β-secretase levels compared to DMSO-treated controls (β-secretase): 40% and 30%; reduction of sAPPβ levels compared to DMSO-treated controls (sAPPβ): 30%
9 | COc1ccc([C@@H]2CC(=O)c3c(O)cc(O[C@@H]4O[C@H](CO[C@@H]5O[C@@H](C)[C@H](O)[C@@H](O)[C@H]5O)[C@@H](O)[C@H](O)[C@H]4O)cc3O2)cc1O [Compound 10, hesperidin] | 98.77 ± 0.14 µM | 331.77 ± 0.14 µM | 57.7 ± 5.96 µM | 55.72 ± 0.17 µM | – | – | reduction of β-secretase levels compared to DMSO-treated controls (β-secretase): 30%; reduction of sAPPβ levels compared to DMSO-treated controls (sAPPβ): 30%

— publication PMC11358882, “Neuroprotective Effects of Phenolic Constituents from Drynariae Rhizoma” (Pharmaceuticals, 2024)
